Where “and” joins values, the source holds several entries; their conditions need not be identical. Equal values may be shown once.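 Each compound was tested at five concentrations against cells in 96-well plates for 48 hours. GI50 = concentration required for 50% inhibition of growth. At the TGI there is no net growth.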 Where a SMILES comes first, the peptide text is derived from it. [ ]: non-standard residue; d: D form. The star is where a group is joined. ξ: configuration not given here. dIva = CC[C@@](C)(N)C(=O)O; Aib = CC(C)(N)C(=O)O; ξP = O=C(O)C1CCCN1; βAla = NCCC(=O)O; X5 = OCN*

Common to all, as to assay: growth of human tumour cells (NCI), 48 h
Test [1] deals with OVCAR-8 ovarian.
The subject of test [2] is NCI-H226 lung.
The subject of test [3] is MDA-MB-435.
For test [4], the system named is EKVX NSCLC.
In test [5] the test system is MALME-3M melanoma.
Test [6] concerns HS 578T breast.
For test [7], the system named is ACHN renal.
The test system of test [8] is A549 NSCLC.
In test [9] the test system is MCF7 breast.
In test [10] the test system is U251 CNS.

Turning to `C=CC(=O)Nc1cccc(Nc2nc(Nc3ccc(N4CCN(C(C)=O)CC4)cc3OC)ncc2C(F)(F)F)c1`, the GI50 in test [1] was 4.05 µM and 3.51 µM; in test [2] it was 3.29 µM and 2.38 µM; in test [3] it was 4.11 µM and 2.95 µM; in test [4] it was 1.36 µM and 1.68 µM; in [5] it was 8.88 µM and 3.09 µM; in test [6], 3.73 µM and 3.36 µM. In addition, the GI50 in test [7] was 2.96 µM and 1.84 µM; in test [8], 2.52 µM and 1.81 µM; in test [9] it was 1.41 µM and 0.933 µM; in test [10], 4.75 µM and 4.08 µM. Also, the TGI is > 10 µM and 98.2 µM in test [1]; > 10 µM and 12.7 µM in [2]; > 10 µM and 19.2 µM in [3]; > 10 µM and 12.4 µM in [4]; > 10 µM and 16.4 µM in test [5]; greater than 95.9 µM in test [6]. In addition, the TGI was greater than 30.3 µM in test [7]; > 10 µM and 12.1 µM in test [8]; greater than 100 µM in test [9]; greater than 100 µM in test [10].
For `CC(C)CC1NC(=O)C(C(C)C)NC(=O)CC(C)COC(=O)C(CC(C)C)N(C)C(=O)C(C(C)C)NC(=O)C(C(C)C)OC1=O` (stereo not given), the TGI in [1], in test [2], in test [3], in test [4], in test [5] and in [6] was greater than 50 µM throughout. The TGI in test [7], in test [8], in [9] and in test [10] was greater than 50 µM each time.
`CSc1nc(-c2cccc(NC(=O)CCl)c2)c(C#N)c(=O)n1C`: the GI50 in [1] was 2.43 µM; in test [2], 3.65 µM; in test [3], 2.06 µM; in [4] it was 1.88 µM; in test [5] it was 1.17 µM; in test [6], 2.33 µM. The GI50 in test [7] was 1.03 µM; in test [8], 3.28 µM; in test [9], 0.24 µM; in test [10], 1.35 µM. Besides, the TGI was greater than 100 µM in test [1]; 44.3 µM in test [2]; 5.98 µM in test [3]; 3.65 µM in test [4]; 2.66 µM in test [5]; 7.45 µM in [6]. Besides, the TGI in test [7] amounted to 2.22 µM; in test [8], 17.4 µM; in test [9], 2.39 µM; in test [10], 3.07 µM.
Take `CC[C@@](C)(NC(=O)[C@H](C)NC(=O)CCNC(=O)C(C)(C)NC(=O)[C@H](C)NC(=O)[C@@H]1CCCN1C(=O)[C@@](C)(CC)NC(=O)[C@H](Cc1ccccc1)NC(=O)C1CCCN1C(=O)C(C)(C)NC(=O)C1CCCN1C(=O)C(C)(C)NC(C)=O)C(=O)NCCC(=O)N[C@@H](CC(C)C)C(=O)NC(C)(C)C(=O)NCCC(=O)N[C@@H](CC(C)C)C(=O)NC(C)(C)C(=O)NC(C)(C)C(=O)N[C@@H](CC(C)C)C(=O)NCCC(=O)NCO` (stereo not given in full) (Ac-[Aib][ξP][Aib][ξP]F[dIva]PA[Aib][βAla]A[dIva][βAla]L[Aib][βAla]L[Aib][Aib]L[βAla]-X5): the GI50 in test [1] is 0.119 µM; in test [2] it was 0.101 µM; in [3], 0.142 µM; in test [4], 0.0661 µM; in test [5], 0.0595 µM; in test [6], 0.248 µM. Also, the GI50 in [7] is 0.199 µM; in test [8], 0.133 µM; in test [9] it was 0.0651 µM; in [10] it was 0.0814 µM. For the same compound, the TGI in test [1] was 0.359 µM; in test [2], 0.342 µM; in test [3], 0.357 µM; in test [4], 0.275 µM; in test [5] it was 0.256 µM; in [6], 0.642 µM. Also, the TGI was 0.428 µM in test [7], 0.351 µM in [8], 0.286 µM in test [9] and 0.268 µM in [10].
Regarding `COc1ccc(-c2cc3c(N)ncnc3o2)cc1`, the GI50 in [1] is greater than 25 µM; in test [2], greater than 25 µM; in [3] it was greater than 25 µM; in [4], 3.59 µM; in test [5] it was 15.5 µM; in test [6] it was 5.85 µM. The GI50 in test [7], in test [8], in [9] and in test [10] was greater than 25 µM in each case. In addition, the TGI in [1], in test [2], in test [3], in test [4], in [5] and in test [6] was greater than 25 µM each time. Moreover, the TGI in [7], in test [8], in test [9] and in [10] was greater than 25 µM each time.

The values are drawn from PubChem BioAssay (NCI).
